Measured values from the Kinase Knowledgebase extract (Sharma et al. 2016).

Key:
PIK3CA (human) [1] = target: PIK3CA (human) (UniProt P42336); assay: Inhibition of PIK3CA Kinase Activity
PIK3CA (human) [2] = target: PIK3CA (human) (UniProt P42336); assay: Inhibition of A2780 Cell Proliferation

PIK3CA (human), sequence (P42336 whole entry, looked up): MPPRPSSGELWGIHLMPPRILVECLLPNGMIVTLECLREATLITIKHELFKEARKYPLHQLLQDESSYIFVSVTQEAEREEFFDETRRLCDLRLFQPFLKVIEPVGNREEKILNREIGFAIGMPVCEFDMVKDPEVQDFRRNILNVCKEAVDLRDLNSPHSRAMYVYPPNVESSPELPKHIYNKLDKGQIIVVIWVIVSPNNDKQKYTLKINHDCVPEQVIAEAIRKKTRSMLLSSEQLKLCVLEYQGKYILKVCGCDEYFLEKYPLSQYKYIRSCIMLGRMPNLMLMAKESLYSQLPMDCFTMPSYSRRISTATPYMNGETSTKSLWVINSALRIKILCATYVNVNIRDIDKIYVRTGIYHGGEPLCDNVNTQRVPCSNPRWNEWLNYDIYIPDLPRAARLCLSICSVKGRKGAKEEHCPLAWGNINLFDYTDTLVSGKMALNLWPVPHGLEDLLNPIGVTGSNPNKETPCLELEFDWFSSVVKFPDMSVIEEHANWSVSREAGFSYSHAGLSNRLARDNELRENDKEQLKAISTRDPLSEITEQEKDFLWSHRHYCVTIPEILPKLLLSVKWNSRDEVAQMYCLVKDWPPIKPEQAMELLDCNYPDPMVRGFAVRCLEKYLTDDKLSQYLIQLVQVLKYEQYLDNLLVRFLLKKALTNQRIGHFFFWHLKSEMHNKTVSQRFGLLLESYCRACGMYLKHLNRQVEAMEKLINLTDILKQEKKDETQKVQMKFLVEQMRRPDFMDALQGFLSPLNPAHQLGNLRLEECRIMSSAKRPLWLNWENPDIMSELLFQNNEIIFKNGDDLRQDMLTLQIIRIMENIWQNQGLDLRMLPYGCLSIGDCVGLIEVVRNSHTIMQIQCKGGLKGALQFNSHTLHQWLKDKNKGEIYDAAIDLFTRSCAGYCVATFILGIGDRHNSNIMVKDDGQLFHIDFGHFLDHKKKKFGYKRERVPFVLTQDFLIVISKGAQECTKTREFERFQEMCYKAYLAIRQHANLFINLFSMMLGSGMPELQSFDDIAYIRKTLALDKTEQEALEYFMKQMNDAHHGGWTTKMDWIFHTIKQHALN

SMILES | IC50 (PIK3CA (human) [1]) [nM] | EC50 (PIK3CA (human) [2]) [nM]
CC(=O)Nc1nc2ccc(-c3cnc(N)c(C(F)(F)F)c3)cn2c1Cl | < 1000 | < 10000
CC(=O)Nc1cn2cc(-c3cnc(N)cn3)ccc2n1 | < 1000 | < 25000
CC(=O)Nc1nc2ccc(-c3cnc(N)c(C(F)(F)F)c3)cn2c1C#CCN1CCOCC1 | < 1000 | < 10000
Nc1ncc(-c2ccc3nc(NC(=O)Cc4cccc5ccccc45)cn3c2)cc1C(F)(F)F | < 1000 | < 1000
COc1cc(-c2ccc3nc(NC(C)=O)cn3c2)c(C)nc1N | ≥ 25000 | < 10000
CCOCC(=O)Nc1cn2nc(-c3cnc(N)c(C(F)(F)F)c3)ccc2n1 | < 1000 | < 10000
CC(=O)Nc1cn2cc(-c3cnc(N)c(OCC4CCN(C)CC4)n3)ccc2n1 | < 1000 | < 10000
CC(=O)Nc1cn2nc(-c3cnc(N)c(N4CCOCC4)n3)ccc2n1 | < 1000 | < 25000
CC(=O)Nc1cn2cc(-c3ccc(N)nc3F)ccc2n1 | < 1000 | < 10000
Nc1ncc(-c2ccc3nc(NC(=O)c4cccnc4)cn3c2)cc1C(F)(F)F | < 1000 | < 10000
C=Cc1c(NC(C)=O)nc2ccc(-c3cnc(N)c(C(F)(F)F)c3)cn12 | < 1000 | < 25000
NC(=O)[C@@H]1CCCN1C(=O)Nc1nc2ccc(-c3cnc(N)c(C(F)(F)F)c3)cc2s1 | < 1000 | < 10000
CCN1CCC(OCC(=O)Nc2cn3cc(-c4cnc(N)c(C(F)(F)F)c4)ccc3n2)CC1 | < 1000 | < 10000
CCCNc1ccc(-c2ccc3nc(NC(C)=O)sc3c2)cn1 | < 1000 | < 25000
CC(=O)Nc1cn2nc(-c3cnc(N)cn3)ccc2n1 | < 1000 | < 25000
CC(C)(C)OC(=O)NCCCC(=O)Nc1cn2nc(-c3cnc(N)c(C(F)(F)F)c3)ccc2n1 | < 1000 | < 1000
CC(=O)Nc1cn2cc(-c3cnc(N)c(-c4cccc(F)c4)c3)ccc2n1 | < 1000 | < 10000
CC(=O)Nc1cn2cc(-c3cnc(N)c(OC4CCN(C)CC4)n3)ccc2n1 | < 10000 | < 25000
CC(=O)Nc1cn2cc(-c3cnc(N)c(-c4cccc(N5CCOCC5)c4)c3)ccc2n1 | < 1000 | < 1000
Nc1ncc(-c2ccc3nc(NC(=O)CO[C@@H]4CCNC4)cn3n2)cc1C(F)(F)F | < 1000 | < 1000

SMILES | IC50 (PIK3CA (human) [1]) [nM] | EC50 (PIK3CA (human) [2]) [nM]
CC(=O)Nc1cn2cc(-c3cnc(N)c(N4CCN(C)CC4)n3)ccc2n1 | < 1000 | < 10000
CC(=O)Nc1cn2cc(-c3cnc(N)c(-c4ccc(C(F)(F)F)cc4)c3)ccc2n1 | < 1000 | < 1000
CC(=O)Nc1cn2cc(-c3cnc(N)nc3)ccc2n1 | < 1000 | < 25000
Nc1ncc(-c2ccc3nc(NC(=O)CO[C@@H]4CCNC4)cn3c2)cc1C(F)(F)F | < 1000 | < 10000
COc1c(-c2cnc(N)c(C(F)(F)F)c2)ccc2nc(NC(=O)C(F)(F)F)cn12 | < 25000 | < 25000
CC(=O)Nc1cn2nc(-c3cnc(N)c(OC(F)F)c3)ccc2n1 | < 1000 | < 1000
CC(=O)Nc1cn2nc(-c3cnc(N)c(Cl)c3)ccc2n1 | < 1000 | < 1000
Nc1ncc(-c2ccc3nc(NC(=O)N4CCC(C(=O)O)C4)cn3c2)cc1C(F)(F)F (stereo not given) | < 1000 | < 25000
CC(=O)Nc1cn2nc(-c3cnc(N)c(-c4ccn(C)n4)c3)ccc2n1 | < 1000 | < 1000
CC(=O)Nc1cn2cc(-c3cnc(N)c(Br)n3)ccc2n1 | < 1000 | < 25000
CC(C)(C)OC(=O)N1CC(C(=O)Nc2cn3nc(-c4cnc(N)c(C(F)(F)F)c4)ccc3n2)C1 | < 1000 | < 10000
CC(=O)Nc1cn2nc(-c3cnc(N)c(-c4ccccc4OC(F)(F)F)c3)ccc2n1 | < 1000 | < 1000
N#Cc1ccc(C(=O)Nc2cn3cc(-c4cnc(N)c(C(F)(F)F)c4)ccc3n2)cc1 | < 1000 | < 25000
CC(=O)Nc1cn2cc(-c3cnc(N)c(Oc4ccc(F)cc4)n3)ccc2n1 | < 1000 | < 1000
Nc1ncc(-c2ccc3nc(NC(=O)c4ccc(F)nc4)cn3c2)cc1C(F)(F)F | < 1000 | < 25000
CC(=O)Nc1cn2cc(-c3ccc(N)nc3)ccc2n1 | < 1000 | < 10000
CC(=O)Nc1nc2ccc(-c3cnc(N)c(C(F)(F)F)c3)c(F)c2s1 | < 1000 | < 10000
N#Cc1cccc(C(=O)Nc2cn3cc(-c4cnc(N)c(C(F)(F)F)c4)ccc3n2)c1 | < 1000 | < 10000
CC(=O)Nc1nc2cc(C)c(-c3cnc(N)c(C(F)(F)F)c3)cc2s1 | < 1000 | < 25000
CC(=O)Nc1cn2cc(-c3cnc(N)c(C(=O)NCCO)n3)ccc2n1 | < 1000 | < 25000
